Reference: patent publication US6444617B1, “Fused-heterocycle dicarboxylic acid diamide derivatives or salts thereof, herbicide and usage thereof” (Nihon Nohyaku Co., Ltd., priority 1998, dated 2002)

How the values were obtained:
Assay type in all cases: in vivo
[1] = tested on: barnyard grass (Echinochloa crus-galli Beauv.), Ec; experiment: Test Example 4: herbicidal effect on upland weeds after emergence; conditions: dosage 5 kg/ha; sprayed after emergence; judged 14 days after treatment
Description: (§1) Herbicidal Effect on Upland Weeds After Emergence Polyethylene-made vats having a size of 10 cm (length)×20 cm (width)×5 cm (height) were filled with soil, sown with seeds of the following noxious upland weeds and with seeds of soybean plant and wheat as upland crop plants, and then covered with soil. The plants were made to grow up until they reached the leaf-stages mentioned below, after which an agent comprising a prescribed concentration of a compound of the present invention (listed in Tables 1 to 14) as active ingredient was sprayed. Fourteen days after the treatment, the herbicidal effect was investigated, from which weed-killing rate was calculated in the same manner as in Test Example 1 and the results were judged. […] Sample weeds, their leaf stages, and leaf stages of soybean plant and wheat were as follows: [table]

[2] = tested on: bird's eye speedwell (Veronica persica Poir.), Vp; experiment: as above; conditions: dosage 5 kg/ha; sprayed after emergence; judged 14 days after treatment
Description: as §1

[3] = tested on: forxtail grass (Alopecurus aequalis var. amurensis Ohwi), Am; experiment: as above; conditions: dosage 5 kg/ha; sprayed after emergence; judged 14 days after treatment
Description: as §1

[4] = tested on: velvetleaf (Abutilon theophtasti L.), At; experiment: as above; conditions: dosage 5 kg/ha; sprayed after emergence; judged 14 days after treatment
Description: as §1

[5] = tested on: cleavers (Galium aparine L.), Ga; experiment: as above; conditions: dosage 5 kg/ha; sprayed after emergence; judged 14 days after treatment
Description: as §1

[6] = tested on: cocklebur (Xanthium strumarium L.), Xs; experiment: as above; conditions: dosage 5 kg/ha; sprayed after emergence; judged 14 days after treatment
Description: as §1

soybean plant (So) = experiment: Test Example 3: phytotoxicity to upland crop plants, treatment before emergence; conditions: dosage 5 kg/ha
Protocol: (§2) Herbicidal Effect on Upland Weeds Before Emergence […] Then, a liquid preparation of an agent comprising a prescribed concentration of a compound of the present invention (the compounds listed in Tables 1-14) as active ingredient was sprayed. Fourteen days after the treatment, the herbicidal effect was investigated, from which weed-killing rate was calculated in the same manner as in Test Example 1, and the herbicidal effect was judged. At the same time, phytotoxicity to soybean plant and wheat was investigated and judged according to the criterion mentioned below.

wheat (Wh) = experiment: as above; conditions: dosage 5 kg/ha
Protocol: as §2

wheat = experiment: Test Example 4: phytotoxicity to upland crop plants, treatment after emergence; conditions: dosage 5 kg/ha, sprayed after emergence, judged 14 days after treatment
Description: as §1

soybean plant = experiment: as above; conditions: dosage 5 kg/ha, sprayed after emergence, judged 14 days after treatment
Description: as §1

[7] = tested on: bulrush (Scirpus juncoides Roxb.); experiment: Test Example 1: herbicidal effect on paddy field weeds before emergence; conditions: Dosage 5 kg/ha
Protocol: (§3) Test for Herbicidal Effect on Paddy Field Weeds Before Emergence Soil was filled into 1/10000 are pots and brought into a state of paddy field, in which seeds of barnyard grass (Echinochloa crus-galli Beauv.) and bulrush (Scirpus juncoides Roxb.) were made to be before germination. The soil in the pots were treated with a solution containing a predetermined dosage of a chemical agent comprising a compound of the present invention listed in Tables 1 to 14. Twenty one days after the treatment, the herbicidal effect was investigated, the result was compared with that in untreated plot to calculate the weed-controlling rate, and the herbicidal effect was judged according to the following criterion: […]

[8] = tested on: barnyard grass (Echinochloa crus-galli Beauv.); experiment: as above; conditions: Dosage 5 kg/ha
Protocol: as §3

[9] = tested on: barnyard grass (Echinochloa crus-galli Beauv.), Ec; experiment: Test Example 3: herbicidal effect on upland weeds before emergence; conditions: dosage 5 kg/ha
Protocol: as §2, with “judged.” for “judged. At the same time, phytotoxicity to soybean plant and wheat was investigated and judged according to the criterion mentioned below.”

[10] = tested on: bird's eye speedwell (Veronica persica Poir.), Vp; experiment: as above; conditions: dosage 5 kg/ha
Protocol: as §2, with “judged.” for “judged. At the same time, phytotoxicity to soybean plant and wheat was investigated and judged according to the criterion mentioned below.”

[11] = tested on: forxtail grass (Alopecurus aequalis var. amurensis Ohwi), Am; experiment: as above; conditions: foxtail grass, dosage 5 kg/ha
Protocol: as §2, with “judged.” for “judged. At the same time, phytotoxicity to soybean plant and wheat was investigated and judged according to the criterion mentioned below.”

[12] = tested on: velvetleaf (Abutilon theophtasti L.), At; experiment: as above; conditions: dosage 5 kg/ha
Protocol: as §2, with “judged.” for “judged. At the same time, phytotoxicity to soybean plant and wheat was investigated and judged according to the criterion mentioned below.”

[13] = tested on: cleavers (Galium aparine L.), Ga; experiment: as above; conditions: dosage 5 kg/ha
Protocol: as §2, with “judged.” for “judged. At the same time, phytotoxicity to soybean plant and wheat was investigated and judged according to the criterion mentioned below.”

[14] = tested on: cocklebur (Xanthium strumarium L.), Xs; experiment: as above; conditions: dosage 5 kg/ha
Protocol: as §2, with “judged.” for “judged. At the same time, phytotoxicity to soybean plant and wheat was investigated and judged according to the criterion mentioned below.”

[15] = tested on: bulrush (Scirpus juncoides Roxb.); experiment: Test Example 2: herbicidal effect on paddy field weeds after emergence; conditions: Dosage 5 kg/ha; one-leaved stage; 21 days after treatment
Protocol: (§4) Test for Herbicidal Effect on Paddy Field Weeds After Emergence. Soil was filled into 1/10000 are pots and brought into a state of paddy field, in which seeds of barnyard grass (Echinochloa crus-galli Beauv.), bulrush (Scirpus juncoides Roxb.) and monochoria (Monochoria vaginalis Presl) were made to reach one-leaved stage. The soil in the pots were treated with a solution containing a predetermined dosage of a chemical agent comprising a compound of the present invention listed in Tables 1 to 14. Twenty one days after the treatment, the herbicidal effect was investigated and the result was compared with that in untreated plot to calculate the weed-controlling rate, and the herbicidal effect was judged according to the same criterion as in Test Example 1.

[16] = tested on: monochoria (Monochoria vaginalis Presl); experiment: as above; conditions: Dosage 5 kg/ha; one-leaved stage; 21 days after treatment
Protocol: as §4

[17] = tested on: barnyard grass (Echinochloa crus-galli Beauv.); experiment: as above; conditions: Dosage 5 kg/ha; one-leaved stage; 21 days after treatment
Protocol: as §4

## CCc1ccc(Cl)c(CC)c1NC(=O)c1cc2ccccc2nc1C(=O)NC1CCCC1 [359-6]
[1]
  Herbicidal effect Ec: 5 (Weed-killing rate is 100%.)
[2]
  Herbicidal effect Vp: 5 (Weed-killing rate is 100%.)
[3]
  Herbicidal effect Am: 5 (Weed-killing rate is 100%.)
[4]
  Herbicidal effect At: 5 (Weed-killing rate is 100%.)
[5]
  Herbicidal effect Ga: 5 (Weed-killing rate is 100%.)
[6]
  Herbicidal effect Xs: 5 (Weed-killing rate is 100%.)
Soybean plant (So)
  Phytotoxicity So: 0 (Crop-killing rate is 0-20% (No Phytotoxicity).)
Wheat (Wh)
  Phytotoxicity Wh: 0 (Crop-killing rate is 0-20% (No Phytotoxicity).)
wheat
  Phytotoxicity Wh: 2 (Crop-killing rate is 40-69%.)
Soybean plant
  Phytotoxicity So: 3 (Crop-killing rate is 70-89%.)
[7]
  Pre-emergence treatment Bulrush (herbicidal effect): 5 (Weed-killing rate is 100%.)
[8]
  Pre-emergence treatment Barnyard grass (herbicidal effect): 5 (Weed-killing rate is 100%.)
[9]
  Herbicidal effect Ec: 5 (Weed-killing rate is 100%.)
[10]
  Herbicidal effect Vp: 5 (Weed-killing rate is 100%.)
[11]
  Herbicidal effect Am: 5 (Weed-killing rate is 100%.)
[12]
  Herbicidal effect At: 5 (Weed-killing rate is 100%.)
[13]
  Herbicidal effect Ga: 5 (Weed-killing rate is 100%.)
[14]
  Herbicidal effect Xs: 5 (Weed-killing rate is 100%.)
[15]
  Post-emergence treatment Bulrush (herbicidal effect): 5 (Weed-killing rate is 100%.)
[16]
  Post-emergence treatment Monochoria (herbicidal effect): 5 (Weed-killing rate is 100%.)
[17]
  Post-emergence treatment Barnyard grass (herbicidal effect): 5 (Weed-killing rate is 100%.)

## CCCNC(=O)c1nc2cc(F)ccc2cc1C(=O)Nc1c(CC)ccc(Cl)c1CC [Compound No. 158, 3-(3-Chloro-2,6-diethylphenyl)-aminocarbonyl-7-fluoro-2-quinolinecarboxylic Acid n-Propylamide]
[1]
  Herbicidal effect Ec: 5 (Weed-killing rate is 100%.)
[2]
  Herbicidal effect Vp: 5 (Weed-killing rate is 100%.)
[3]
  Herbicidal effect Am: 4 (Weed-killing rate is 90-99%.)
[4]
  Herbicidal effect At: 5 (Weed-killing rate is 100%.)
[5]
  Herbicidal effect Ga: 5 (Weed-killing rate is 100%.)
[6]
  Herbicidal effect Xs: 4 (Weed-killing rate is 90-99%.)
Soybean plant (So)
  Phytotoxicity So: 1 (Crop-killing rate is 1-39%.)
Wheat (Wh)
  Phytotoxicity Wh: 4 (Crop-killing rate is 90-99%.)
wheat
  Phytotoxicity Wh: 4 (Crop-killing rate is 90-99%.)
Soybean plant
  Phytotoxicity So: 2 (Crop-killing rate is 40-69%.)
[7]
  Pre-emergence treatment Bulrush (herbicidal effect): 5 (Weed-killing rate is 100%.)
[8]
  Pre-emergence treatment Barnyard grass (herbicidal effect): 5 (Weed-killing rate is 100%.)
[9]
  Herbicidal effect Ec: 5 (Weed-killing rate is 100%.)
[10]
  Herbicidal effect Vp: 5 (Weed-killing rate is 100%.)
[11]
  Herbicidal effect Am: 4 (Weed-killing rate is 90-99%.)
[12]
  Herbicidal effect At: 5 (Weed-killing rate is 100%.)
[13]
  Herbicidal effect Ga: 5 (Weed-killing rate is 100%.)
[14]
  Herbicidal effect Xs: 4 (Weed-killing rate is 90-99%.)
[15]
  Post-emergence treatment Bulrush (herbicidal effect): 5 (Weed-killing rate is 100%.)
[16]
  Post-emergence treatment Monochoria (herbicidal effect): 5 (Weed-killing rate is 100%.)
[17]
  Post-emergence treatment Barnyard grass (herbicidal effect): 5 (Weed-killing rate is 100%.)

## CCNC(=O)c1nc2ncccc2cc1C(=O)Nc1c(CC)ccc(Cl)c1CC [Compound No. 360, 3-(3-Chloro-2,6-diethylphenyl)-aminocarbonyl-1,8-naphthylidine-2-carboxylic Acid Ethylamide]
[1]
  Herbicidal effect Ec: 5 (Weed-killing rate is 100%.)
[2]
  Herbicidal effect Vp: 5 (Weed-killing rate is 100%.)
[3]
  Herbicidal effect Am: 5 (Weed-killing rate is 100%.)
[4]
  Herbicidal effect At: 5 (Weed-killing rate is 100%.)
[5]
  Herbicidal effect Ga: 4 (Weed-killing rate is 90-99%.)
[6]
  Herbicidal effect Xs: 5 (Weed-killing rate is 100%.)
Soybean plant (So)
  Phytotoxicity So: 3 (Crop-killing rate is 70-89%.)
Wheat (Wh)
  Phytotoxicity Wh: 4 (Crop-killing rate is 90-99%.)
wheat
  Phytotoxicity Wh: 4 (Crop-killing rate is 90-99%.)
Soybean plant
  Phytotoxicity So: 3 (Crop-killing rate is 70-89%.)
[7]
  Pre-emergence treatment Bulrush (herbicidal effect): 5 (Weed-killing rate is 100%.)
[8]
  Pre-emergence treatment Barnyard grass (herbicidal effect): 5 (Weed-killing rate is 100%.)
[9]
  Herbicidal effect Ec: 5 (Weed-killing rate is 100%.)
[10]
  Herbicidal effect Vp: 5 (Weed-killing rate is 100%.)
[11]
  Herbicidal effect Am: 5 (Weed-killing rate is 100%.)
[12]
  Herbicidal effect At: 5 (Weed-killing rate is 100%.)
[13]
  Herbicidal effect Ga: 5 (Weed-killing rate is 100%.)
[14]
  Herbicidal effect Xs: 5 (Weed-killing rate is 100%.)
[15]
  Post-emergence treatment Bulrush (herbicidal effect): 5 (Weed-killing rate is 100%.)
[16]
  Post-emergence treatment Monochoria (herbicidal effect): 5 (Weed-killing rate is 100%.)
[17]
  Post-emergence treatment Barnyard grass (herbicidal effect): 5 (Weed-killing rate is 100%.)

## CCCNC(=O)c1nc2c(cc1C(=O)Nc1c(CC)ccc(Cl)c1CC)COCC2 [Compound No. 462, 3-(3-Chloro-2,6-diethylphenyl)-aminocarbonyl-7,8-dihydro-5H-pyrano[4,3-b]pyridine-2-carboxylic Acid n-Propylamide]
[1]
  Herbicidal effect Ec: 5 (Weed-killing rate is 100%.)
[2]
  Herbicidal effect Vp: 5 (Weed-killing rate is 100%.)
[3]
  Herbicidal effect Am: 5 (Weed-killing rate is 100%.)
[4]
  Herbicidal effect At: 5 (Weed-killing rate is 100%.)
[5]
  Herbicidal effect Ga: 5 (Weed-killing rate is 100%.)
[6]
  Herbicidal effect Xs: 5 (Weed-killing rate is 100%.)
Soybean plant (So)
  Phytotoxicity So: 5 (Crop-killing rate is 100%.)
Wheat (Wh)
  Phytotoxicity Wh: 5 (Crop-killing rate is 100%.)
wheat
  Phytotoxicity Wh: 5 (Crop-killing rate is 100%.)
Soybean plant
  Phytotoxicity So: 5 (Crop-killing rate is 100%.)
[7]
  Pre-emergence treatment Bulrush (herbicidal effect): 5 (Weed-killing rate is 100%.)
[8]
  Pre-emergence treatment Barnyard grass (herbicidal effect): 5 (Weed-killing rate is 100%.)
[9]
  Herbicidal effect Ec: 5 (Weed-killing rate is 100%.)
[10]
  Herbicidal effect Vp: 5 (Weed-killing rate is 100%.)
[11]
  Herbicidal effect Am: 5 (Weed-killing rate is 100%.)
[12]
  Herbicidal effect At: 5 (Weed-killing rate is 100%.)
[13]
  Herbicidal effect Ga: 5 (Weed-killing rate is 100%.)
[14]
  Herbicidal effect Xs: 5 (Weed-killing rate is 100%.)
[15]
  Post-emergence treatment Bulrush (herbicidal effect): 5 (Weed-killing rate is 100%.)
[16]
  Post-emergence treatment Monochoria (herbicidal effect): 5 (Weed-killing rate is 100%.)
[17]
  Post-emergence treatment Barnyard grass (herbicidal effect): 5 (Weed-killing rate is 100%.)
